This is an account of results in BindingDB's records for doi:10.1021/jm061414r (The Scripps Research Institute, 2007).

In the experiment the target is T1, Carboxylic ester hydrolase (Homo sapiens, UniProt Q8TDZ9).
T1 sequence (Q8TDZ9 whole entry): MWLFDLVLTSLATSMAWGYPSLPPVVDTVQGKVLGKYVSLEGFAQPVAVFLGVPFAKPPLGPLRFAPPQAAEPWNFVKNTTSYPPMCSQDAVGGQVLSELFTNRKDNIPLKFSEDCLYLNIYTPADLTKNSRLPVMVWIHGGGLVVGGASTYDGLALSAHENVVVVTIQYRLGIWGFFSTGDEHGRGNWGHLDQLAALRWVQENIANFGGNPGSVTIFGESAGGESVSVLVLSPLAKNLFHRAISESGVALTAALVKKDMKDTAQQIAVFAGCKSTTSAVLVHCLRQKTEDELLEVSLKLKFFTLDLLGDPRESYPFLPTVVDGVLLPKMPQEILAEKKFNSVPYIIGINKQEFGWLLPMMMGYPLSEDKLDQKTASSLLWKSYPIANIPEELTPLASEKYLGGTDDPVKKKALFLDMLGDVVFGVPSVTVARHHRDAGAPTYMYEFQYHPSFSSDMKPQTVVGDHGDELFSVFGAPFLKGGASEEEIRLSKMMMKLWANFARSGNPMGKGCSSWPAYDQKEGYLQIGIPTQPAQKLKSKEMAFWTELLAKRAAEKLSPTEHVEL
As to the kind of experiment: TGH Inhibition Assay. The method, then:
Inhibition of TGH activity was assayed using COS-7 expressed TGH and the chromogenic substrate. IC50 values were determined from the inhibition observed at 7 different inhibitor concentrations (three trials each).
By IC50 is commonly meant the midpoint of a concentration-inhibition curve. A lower IC50 goes with higher potency. Compound `O=C(CCc1ccc(OCc2ccccc2)cc1)c1ncc(-c2ccccn2)o1` [3-[4-(benzyloxy)phenyl]-1-[5-(pyridin-2-yl)-1,3-oxazol-2-yl]propan-1-one] came in with an IC50 of 8000 nM.
On to `O=C(CCc1ccc(COc2ccccc2)cc1)c1ncc(-c2ccccn2)o1`, for which half-maximal inhibition (IC50) required 2000 nM.
`O=C(CCCCCCc1cccc(Cl)c1Cl)c1ncc(-c2ccccn2)o1` [7-(2,3-dichlorophenyl)-1-[5-(pyridin-2-yl)-1,3-oxazol-2-yl]heptan-1-one]: the IC50 is 500 nM.
